Assay results as given in patent publication US4875922A, “Pyrimidine derivatives” (Imperial Chemical Industries PLC, priority 1986, dated 1989).
Where two headings read alike, the source gives them in different places.

Experiments:
Spring Barley = assay: Intermediate Retardant Test, spring barley; type: in vivo, Spring Barley (Atem/kym); settings: Hordeum vulgare, 672 h, read-out: Percentage Reduction in Height of Spring Barley (Compared to formulation blank)
Excerpt: (§1) Three species are involved in this test RICE, SPRING-BARLEY and APPLES. The variety and growth stages at spray are outlined in Table V. Compounds were applied at 500 ppm and 2000 ppm respectively (0.5 kg and 2 kg/ha^-1 at a field volume of 1000 l/ha^-1) as an overall spray except in the case of certain tests on APPLES. This gives a foliar and root component in the test, i.e., this test will detect the activity of both root and foliar acting compounds. The intermediate retardant test on APPLES of which the results are given in Table IX was different, in that a foliar (only) spray at 2000 ppm was compared with a root drench, also at 2000 ppm. The rice was grown in 4" `paddy` pots, i.e., the roots and bottom of the stems are immersed in water under conditions corresponding to those in paddy fields. Spring barley and apples were grown in 4" pots. The plants were assessed for height to top-most ligule at approximately 28 days after treatment for spring barley and rice and for height to apex at approximately 28 days after the treatment for apples. In each case the result for the 500 ppm and 2000 ppm test for each compound is compared to the height of the formulation blank in that test, presented as a percentage reduction in height compared to the formulation blank.
(§2) The prior art compound was compared with compounds of the present invention in side-by-side comparisons using the Intermediate Retardant Test described in Example 62, and the results are given in Tables X to XII where `A` is the prior art compound, 2-methyl-1-isopropyl-1-(pyrimidin-5-yl)-propan-1-ol).

Apples [1] = assay: Intermediate Retardant Test, apples, foliar spray compared with root drench; type: in vivo, Apples (Red Delicious); settings: 672 h, read-out: Percentage Reduction in Height of Apples (Compared to formulation blank)
Excerpt: as §1, §2

Maize = assay: Whole plant screen for plant growth regulator activity, maize (MZ); type: in vivo, Maize (Earliking); settings: 4000 ppm (4 kg/ha), visual score after 2-6 weeks
Procedure: Compounds 1 to 3 in Table 1 were tested for plant growth regulator activity against five species for various growth effects relevant to plant growth regulation.
The plant species used in this screen are presented in Table II with the leaf stage at which they were sprayed. Each chemical was applied at 4000 ppm (4 kg/ha in a 1000 l/ha field volume) using a tracksprayer and a SS8004E (Teejet) nozzle.
After spray the plants were grown in a glasshouse with 25° C. day/22° C. night temperatures and supplementary lighting was supplied when necessary (from mercury vapour lamps), to provide a 16 hour photoperiod. The exception to this were the temperate cereals, wheat and barley which were grown in 16° C. day/13° C. night temperatures.
After 2-6 weeks in the glasshouse, depending on the time of year, the plants were visually assessed for morphological characteristics. Formulation blanks were used as controls to assess the plants. […]

Wheat = assay: Whole plant screen for plant growth regulator activity, wheat (WW); type: in vivo, Wheat (Timmo); settings: for G = Greening effect / I = Interligular or internodal length reduction / R = Retardation / T = Tillering or side shooting: WW, 4000 ppm (4 kg/ha), visual score after 2-6 weeks; for T = Tillering or side shooting: * = decrease in tillering
Method in brief: (§3)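 Plants were sprayed with compound at 4000 ppm (4 kg/ha in a 1000 l/ha field volume) by tracksprayer and kept in a glasshouse under a 16 h photoperiod: maize and rice at 25° C. day/22° C. night, wheat and barley at 16° C. day/13° C. night. Morphology was scored visually after 2-6 weeks against formulation blanks.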

Barley [2] = assay: Whole plant screen for plant growth regulator activity, barley (BR); type: in vivo, Barley (Atem); settings: BR, 4000 ppm (4 kg/ha), visual score after 2-6 weeks; for T = Tillering or side shooting: * = decrease in tillering
Method in brief: as §3

Apple [3] = assay: Whole plant screen for plant growth regulator activity, apple (AP); type: in vivo, Apple (Red Delicious); settings: 4000 ppm (4 kg/ha), visual score after 2-6 weeks
Method in brief: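 Growth-regulator effects were judged by eye on glasshouse plants 2-6 weeks post-spray (timing varying with season), using formulation blanks for comparison. Application rate was 4000 ppm, equivalent to 4 kg/ha in 1000 l/ha.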

Rice [4] = assay: Intermediate Retardant Test, rice; type: in vivo, Rice (Ishikari); settings: Oryza sativa, 672 h, read-out: Percentage Reduction in Height of Rice (Compared to formulation blank)
Excerpt: as §1, §2

Tomato = assay: Whole plant screen for plant growth regulator activity, tomato (TO); type: in vivo, Tomato (Ailsa Craig); settings: 4000 ppm (4 kg/ha), visual score after 2-6 weeks
Method in brief: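 Tomato (Ailsa Craig), one plant per 3-inch peat pot, sprayed at 2–2½ leaves with 4000 ppm (4 kg/ha in 1000 l/ha) by track sprayer. Glasshouse 25 °C day/22 °C night, 16 h photoperiod; morphology visually scored after 2–6 weeks against formulation blanks.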

Rice [5] = assay: Whole plant screen for plant growth regulator activity, rice (RC); type: in vivo, Rice (Ishikari); settings: 4000 ppm (4 kg/ha), visual score after 2-6 weeks; for T = Tillering or side shooting: * = decrease in tillering
Method in brief: as §3

Apples [6] = assay: Intermediate Retardant Test, apples, overall spray; type: in vivo, Apples (Red Delicious); settings: approximately 28 days, Table VIII
Excerpt: as §1

Sunflower = assay: Modified Intermediate Retardant Test, sunflower; type: in vivo; settings: 2000 g/ha, height to apex 14 days after treatment
Excerpt: (§4) The general Intermediate Retardant Test described in Example 62 was modified by the addition of Sunflowers (SR) and the variety and growth stages at spray are outlined in Table XIII. Apart from the changes indicated, growing conditions for barley, rice and apples were as in Example 62 and growing conditions for Sunflower were as for apples. Test compounds were applied to barley, rice and apples as whole plant (overall) sprays at a rate of 2000 g/ha. Test compounds were applied to sunflowers separately as a foliar only spray at a rate of 2000 g/ha and as a root drench at a rate of 2000 g/ha.
(§5) Barley and rice were assessed for height to topmost ligule 21 days after treatment; apples were assessed for height to apex at 21 days after treatment; and sunflowers were assessed for height to apex at 14 days after treatment. The results are expressed as percentage reduction in height compared with the formulation blank in Table XIV.

Apple [7] = assay: Modified Intermediate Retardant Test, apples; type: in vivo, Apple (Red Delicious); settings: 2000 g/ha, overall spray, height to apex 21 days after treatment
Excerpt: as §4, §5

Rice [8] = assay: Modified Intermediate Retardant Test, rice; type: in vivo, Rice (Ishikari); settings: 2000 g/ha, overall spray, height to topmost ligule 21 days after treatment
Excerpt: as §4, §5

Barley [9] = assay: Modified Intermediate Retardant Test, barley; type: in vivo, Barley (Atem); settings: 2000 g/ha, overall spray, height to topmost ligule 21 days after treatment
Excerpt: as §4, §5

[10] = overall spray, approximately 28 days, Table VII
[11] = overall spray, approximately 28 days, Table VI
[12] = side-by-side comparison with prior art compound, Table XI
[13] = 2000 ppm (Foliar), side-by-side comparison with prior art compound, Table XII
[14] = 2000 ppm (Root), side-by-side comparison with prior art compound, Table XII
[15] = side-by-side comparison with prior art compound, Table X

Row | SMILES | percent reduction in plant height at 500 ppm (Spring Barley; [10]) | percent reduction in plant height at 2000 ppm (Spring Barley; [10]) | A = Apical damage (Maize) | I = Interligular or internodal length reduction (Maize) | G = Greening effect (Wheat) | I = Interligular or internodal length reduction (Wheat) | R = Retardation (Wheat) | T = Tillering or side shooting (Wheat) | G = Greening effect (Barley [2]) | I = Interligular or internodal length reduction (Barley [2]) | R = Retardation (Barley [2]) | T = Tillering or side shooting (Barley [2]) | G = Greening effect (Apple [3]) | I = Interligular or internodal length reduction (Apple [3]) | R = Retardation (Apple [3]) | Percent reduction in rice height vs formulation blank at 500 ppm (Rice [4]; [11]) | Percent reduction in rice height vs formulation blank at 2000 ppm (Rice [4]; [11]) | G = Greening effect (Rice [5]) | I = Interligular or internodal length reduction (Rice [5]) | R = Retardation (Rice [5]) | also measured
1 | CCCC#CC(O)(c1cncnc1)C(C)(C)C (stereo not shown) [Compound 14, 2,2-Dimethyl-1-(pent-1-yne)-1-(pyrimidin-5yl)propan-1ol] | 51% | 68% | 1 (10-30%) | 3 (61-100%) | 2 (31-60%) | 3 (61-100%) | 3 (61-100%) | 3 (61-100%) | 2 (31-60%) | 3 (61-100%) | 3 (61-100%) | 3 (61-100%) | 3 (61-100%) | 3 (61-100%) | 3 (61-100%) | 63% | 76% | 2 (31-60%) | 2 (31-60%) | 3 (61-100%) | percent reduction in plant height at 2000 ppm (Apples [1]; 2000 ppm (Foliar), approximately 28 days, Table IX): 23%; percent reduction in plant height at 2000 µg/mL (Apples [1]; soil, 2000 pmm (Root), root drench, approximately 28 days, Table IX): 58.5%; G = Greening effect (Maize): 2 (31-60%); R = Retardation (Maize): 2 (31-60%); T = Tillering or side shooting (Apple [3]; * = decrease in tillering): 1 (10-30%); G = Greening effect (Tomato): 2 (31-60%); I = Interligular or internodal length reduction (Tomato): 2 (31-60%); R = Retardation (Tomato): 3 (61-100%)
2 | CCCC#CC(O)(c1cncnc1)C(C)C (stereo not shown) [Compound 2, 2-methyl-1-(pent-1-yne)-1-(pyrimidin-5-yl)-propan-1-ol] | 1% | 20% |  | 1 (10-30%) | 2 (31-60%) | 3 (61-100%) | 2 (31-60%) | 2 (31-60%) | 1 (10-30%) | 3 (61-100%) | 3 (61-100%) | 3 (61-100%) | 1 (10-30%) | 2 (31-60%) | 3 (61-100%) | 18% | 46% | 2 (31-60%) | 3 (61-100%) | 3 (61-100%) | Percentage Reduction in Height of Apples (Compared to formulation blank) (Apples [6]; 500 ppm): 10.5%; Percentage Reduction in Height of Apples (Compared to formulation blank) (Apples [6]; 2000 ppm): 52.1%; percent reduction in plant height at 500 ppm (Spring Barley; [12]): 25%; percent reduction in plant height at 2000 ppm (Spring Barley; [12]): 59%; percent reduction in plant height at 2000 ppm (Apples [1]; [13]): 41.8%; percent reduction in plant height at 2000 ppm (Apples [1]; [14]): 64.4%; R = Retardation (Maize): 2 (31-60%); Percent reduction in rice height vs formulation blank at 500 ppm (Rice [4]; [15]): 27%; Percent reduction in rice height vs formulation blank at 2000 ppm (Rice [4]; [15]): 69%; T = Tillering or side shooting (Rice [5]): 3 (61-100%)
3 | CCCCCC(O)(c1cncnc1)C(C)C (stereo not shown) [Compound 3, 2-methyl-1-pentyl-1-(pyrimidin-5-yl)-propan-1-ol] |  | 11% | 1 (10-30%) |  | 1 (10-30%) | 3 (61-100%) | 3 (61-100%) | 2 (31-60%) | 2 (31-60%) | 3 (61-100%) | 3 (61-100%) | 3 (61-100%) | 1 (10-30%) | 2 (31-60%) | 3 (61-100%) | 17% | 47% | 2 (31-60%) | 2 (31-60%) | 3 (61-100%) | Percentage Reduction in Height of Apples (Compared to formulation blank) (Apples [6]; 2000 ppm): 34.1%; percent reduction in plant height at 500 ppm (Spring Barley; [12]): 0%; percent reduction in plant height at 2000 ppm (Apples [1]; [13]): 14.2%; percent reduction in plant height at 2000 ppm (Apples [1]; [14]): 62.7%; Percent reduction in rice height vs formulation blank at 500 ppm (Rice [4]; [15]): 17%; T = Tillering or side shooting (Rice [5]): 1 (10-30%)
4 | CCCCC#CC(O)(c1cncnc1)C(C)(C)C (stereo not shown) [Compound 31] |  |  |  |  | 3 (61-100%) | 3 (61-100%) |  | 1 (10-30%) | 3 (61-100%) | 3 (61-100%) | 3 (61-100%) | 1 (10-30%) |  |  |  |  |  |  |  |  | […] IN HEIGHT, SR (Foliar) (Sunflower; foliar only spray): 19%; […] IN HEIGHT, SR (Root) (Sunflower; root drench): 51%; […] IN HEIGHT, AP (Apple [7]): 50%; […] IN HEIGHT, RC (Rice [8]): 77%; […] IN HEIGHT, BR (Barley [9]): 69%; A = Apical damage (Wheat; 4000 ppm): 1 (10-30%); G = Greening effect (Tomato): 2 (31-60%); I = Interligular or internodal length reduction (Tomato): 3 (61-100%); R = Retardation (Tomato): 3 (61-100%)
